For one data set, the system named is HCT-116 cells. The data set can be described thus: Cell survival (MTT assay), HCT-116. As to conditions: Homo sapiens, HCT-116, 48 h. Format: cell-based, human. The method, then: (§1) The survival of cells was determined by MTT (3-(4,5-Dimethylthiazol-2yl-)-2,5-diphenyl tetrazolium bromide) assay (ATCC, Manassas, VA, USA). In principle, the viable cell number is directly proportional to the purple formazan color of the reduced MTT dye, which can be quantitatively measured by spectrophotometry. Briefly, 1,500 cells were plated in quadruplets in 96-well flat-bottom tissue culture plates. After treatment with compounds for certain periods as described in respective figure legends, 10 μl of MTT reagent was added to each well and incubated at 37°C for 4 h to allow the formation of purple color crystals of formazan. In total, 100 μl of detergent solution was added to each well, and the reaction mixture was incubated in dark for 2–4 h at room temperature. The developed color density was then measured spectrophotometrically at 570 nm using the POLARstar Omega micro-plate reader (BMG Labtech, Inc., Cary, NC, USA).
A general note: Tetrazolium dyes change colour on reduction, which living cells bring about.

The test system of the next data set is LoVo cells. Description: Cell survival (MTT assay), LoVo. Format: cell-based. As to conditions: Homo sapiens, drug alone, 48 h. The method, then: as §1
In another data set the test system is LS174T cells. The data set can be described thus: Cell survival (MTT assay), LS174T. Format: cell-based. As to conditions: Homo sapiens, drug alone, 48 h. How it is done:
as §1

Another data set has as its system HT29 cells. Description: Cell cycle profile by FACS. As to conditions: 2 mM HU 24 h. Format: cell-based, human. How it is done:
For determining the cell cycle profile, cells were plated in 60 mm tissue culture dishes and grown until 60% confluence. […] After treatment, cells were harvested at different time intervals, washed with ice-cold PBS and processed for FACS analysis as described previously. The ranges for G0/G1, S, and G2/M phase arrested and sub-G1 apoptotic cells were established on the basis of the corresponding DNA content of the histograms. At minimum, 10,000 cells were counted from each sample.

Data set [1] has as its system γH2AX(S139P)-foci in HCT-116 cells. Description: γH2AX(S139P)-foci IHC staining, HCT-116. The data set is classed as cell-based, human. As to conditions: 24 h.
Data set [2] concerns γH2AX(S139P)-foci in CA2 cells. The data set can be described thus: γH2AX(S139P)-foci IHC staining, CA2. The data set is classed as cell-based, human. As to conditions: 24 h.
Data set [3] in a line: Pharmacokinetic analysis in CD1 mice. The data set is classed as in vivo, male CD1 mice. As to conditions: 20 mg/kg body weight, IP, plasma. How it is done: Pharmacokinetic analysis of NSC30049 in CD1 mice was determined by Pharmaron, Inc. (Louisville, KY, USA). Mice were injected intraperitoneally (IP) with NSC49L (20 mg/kg body weight) and approximately 0.04 ml blood was collected at 0, 5, 15 and 30 min, 1, 2, 4, 8 and 24 h time point. Blood of each sample was transferred into plastic micro-centrifuge tubes containing 2 μl of Heparin (1,000 IU). Samples were stored in a freezer at −75 ± 15°C prior to analysis. Concentrations of NSC49L in the plasma samples was analyzed using a LC-MS/MS method. WinNonlin® (Phoenix®, version 6.1) software was used for pharmacokinetic calculations. The following pharmacokinetic parameters were calculated from the plasma concentration versus time data: T1/2, Cmax, AUClast, AUCinf, AUCextra%, Number of Points for Regression. The pharmacokinetic data is described using mean ± standard deviation (SD) and n = 3.

Data set [4] can be described thus: Maximum tolerated dose and pathological analysis of organs. The data set is classed as in vivo, male SCID mice. The method, then: We have determined the MTD of NSC49L from male homozygous CB17 scid/scid (SCID) mice obtained from Tacomic Farms (Germantown, NY, USA). The mice were treated subcutaneously at 25, 50, and 75 mg/kg body weight for 5 consecutive days followed by observation for an additional 7 days. Every day body weight was recorded and behavioral changes were monitored in the treated versus control animals. After the 7th day animals were sacrificed and the organs from the mice treated at 75 mg/kg body weight were processed for pathological examination. Different organs were fixed in 10% buffered formalin, then sectioned and processed into paraffin blocks. Tissue sections were cut 4–5 μm thick and stained with hematoxylin and eosin. Histologic differences between control (A) and treated (B) mice were recorded and photomicrographs were taken with Olympus, BX41 microscope with attached camera.

[5] abbreviates: HU withdrawn, then 20 μM NSC49L 8 h.
[6] abbreviates: then 20 μM NSC49L additional 8 h in presence of HU.
[7] abbreviates: NSC49L in combination with 5-FU.

By IC50 is commonly meant the concentration needed to halve the response being measured. A word on the AUC(0-inf): it is total exposure, with the tail of the curve extrapolated. In general, AUC(0-t) refers to exposure summed from dosing to a finite time, without extrapolation to infinity. A word on the Cmax: it is the highest concentration seen after dosing. A word on the Tmax: it is the time at which the peak concentration occurs. What is called half-life is the time in which the quantity being followed falls by half. Lower therefore signals fast loss. The AUC is the area under the concentration-time curve, a measure of exposure. Turning to `ClC/C=C/C[N+]12CN3CN(CN(C3)C1)C2` [NSC49L], the IC50 in the data set on HCT-116 cells (MTT assay, Figure 1B, three experiments) was 3.9 µM; with HCT-116 cells (drug alone, MTT, Table 1, four estimations), 2.8 ± 0.5 µM; in the data set with LoVo cells, 4.2 ± 0.1 µM; in the data set on LS174T cells it was 4.6 ± 0.8 µM. Also, in the data set on HT29 cells (setting [5]), the “Cell cycle distribution G2/M” value stood at 26.1%. The results for the “Cell cycle distribution S (S-phase arrest)” value with HT29 cells (setting [5]) and in the data set on HT29 cells (setting [6]) were 50.6% and 39.7%, respectively. In the data set with HT29 cells (setting [6]), the “Entry of G2/M-phase” value was “complete blockage to the entry of G2/M-phase”. The “γH2AX(S139P)-foci” value in data set [1] (NSC49L alone) was “increased”; in data set [1] (setting [7]), “further increased”; in data set [2] (NSC49L alone), “increased”; in data set [2] (setting [7]) it was “further increased”. The same compound yielded an AUC_%Extrap_obs in data set [3] of 0.187 ± 293%. The same compound had an area under the curve AUC(0-inf) in data set [3] (male, CD1, mouse) of 1310 ± 89 ng·h/mL. For the same compound, the AUC(0-t) in data set [3] (male, CD1, mouse) worked out at 1310 ± 86 ng·h/mL. Also, the highest level in data set [3] (male, CD1, mouse) (Cmax) was 5530 ng/mL. Besides, the Tmax in data set [3] (male, CD1, mouse) was determined as 4.98 min. In data set [3] (male, CD1, mouse, n = 3), this compound gave a half-life of 14 ± 5.88 min. Further, the exposure (AUC) in data set [3] (male, CD1, mouse, read-out: AUC (bioavailability)) turned out to be 1310 ± 86 ng·h/mL. The “Histologic sections of organs” value in data set [4] (75 mg/kg body weight, bone marrow, brain, kidney, liver, lung, pancreas) is “no significant differences between control and treated mice”. For the same compound, the “Body weight, behavior, pathological abnormalities” value in data set [4] (25, 50 and 75 mg/kg body weight, 5 consecutive days, 7 days observation, treated versus control) is recorded as “no change in body weight, behavior, or pathological abnormalities”.
